This experiment deals with T1, human PPARgamma (Homo sapiens, UniProt P37231).
T1 construct: amino acids I152-Y475; expressed in transfected cells; host or cells: HEK cells, transiently transfected (pcDNA3-GAL4-humanPPARgammaLBD)
T1 sequence (P37231 182-477 isoform P37231-2 limits assumed): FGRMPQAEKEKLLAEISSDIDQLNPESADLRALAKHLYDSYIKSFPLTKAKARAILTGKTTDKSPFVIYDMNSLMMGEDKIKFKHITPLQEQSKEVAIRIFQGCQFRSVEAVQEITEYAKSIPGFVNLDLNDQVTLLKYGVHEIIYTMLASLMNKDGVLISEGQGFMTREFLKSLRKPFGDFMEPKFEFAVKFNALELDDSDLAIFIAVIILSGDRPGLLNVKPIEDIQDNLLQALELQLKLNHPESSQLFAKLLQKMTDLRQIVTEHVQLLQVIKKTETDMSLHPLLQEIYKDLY
Nature of the experiment: Cellular PPARgamma assay (transiently transfected HEK cells, luciferase reporter). The class given is cell-based. The note with it: HEK cells transiently transfected with GAL4-humanPPARgammaLBD. The source says:
A transient transfection system is employed to determine the cellular PPARgamma activity of PPAR agonists. It is based on the use of a luciferase reporter plasmid (pGL3basic-5xGAL4-TK) and of a PPARgamma expression plasmid (pcDNA3-GAL4-humanPPARgammaLBD). Both plasmids are transiently transfected into human embryonic kidney cells (HEK cells). There is then expression in these cells of the fusion protein GAL4-humanPPARgammaLBD which binds to the GAL4 binding sites of the reporter plasmid. In the presence of a PPARgamma-active ligand, the activated fusion protein GAL4-humanPPARgammaLBD induces expression of the luciferase reporter gene, which can be detected in the form of a chemiluminescence signal after addition of a luciferase substrate. As a difference from the stably transfected PPARalpha reporter cell line, in the cellular PPARgamma assay the two components (luciferase reporter plasmid and PPARgamma expression plasmid) are transiently transfected into HEK cells because stable and permanent expression of the PPARgamma fusion protein is cytotoxic.
The luciferase reporter plasmid pGL3basic-5xGAL4-TK is based on the vector pGL3basic from Promega. The reporter plasmid is prepared by cloning five binding sites of the yeast transcription factor GAL4 (each binding site with the sequence 5′-CTCGGAGGACAGTACTCCG-3′), together with a 160 bp-long thymidine kinase promoter section (Genbank Accession #AF027128) 5′-upstream into pGL3basic. 3′-downstream of the thymidine kinase promoter is the complete luciferase gene from Photinus pyralis (Genbank Accession #M15077) which is already a constituent of the plasmid pGL3basic used. The cloning and sequencing of the reporter plasmid pGL3basic-5xGAL4-TK took place in analogy to the description in Sambrook J. et. al. (Molecular cloning, Cold Spring Harbor Laboratory Press, 1989).
The PPARgamma expression plasmid pcDNA3-GAL4-humanPPARgammaLBD was prepared by first cloning the cDNA coding for amino acids 1-147 of the yeast transcription factor GAL4 (Genbank Accession #P04386) into the plasmid pcDNA3 (from Invitrogen) 3′-downstream of the cytomegalovirus promoter. Subsequently, the cDNA of the ligand-binding domain (LBD) of the human PPARgamma receptor (amino acids I152-Y475; Accession #g1480099) 3′-downstream of the GAL4 DNA binding domain. Cloning and sequencing of the PPARgamma expression plasmid pcDNA3-GAL4-humanPPARgammaLBD again took place in analogy to the description in Sambrook J. et. al. (Molecular cloning, Cold Spring Harbor Laboratory Press, 1989). Besides the luciferase reporter plasmid pGL3basic-5xGAL4-TK and the PPARgamma expression plasmid pcDNA3-GAL4-humanPPARgammaLBD, also used for the cellular PPARgamma assay are the reference plasmid pRL-CMV (from Promega) and the plasmid pBluescript SK(+) from Stratagene. All four plasmids were prepared using a plasmid preparation kit from Qiagen, which ensured a plasmid quality with a minimal endotoxin content, before transfection into HEK cells.
The activity of PPARgamma agonists is determined in a 4-day assay which is described below. Before the transfection, HEK cells are cultivated in DMEM (#41965-039, Invitrogen) which is mixed with the following additions: 10% FCS (#16000-044, Invitrogen), 1% penicillin-streptomycin solution (#15140-122, Invitrogen) and 2 mM L-glutamine (#25030-024, Invitrogen).
Firstly, solution A, a transfection mixture which contains all four plasmids previously described in addition to DMEM, is prepared. The following amounts are used to make up 3 ml of solution A for each 96 well microtiter plate for an assay: 2622 μl of antibiotic- and serum-free DMEM (#41965-039, Invitrogen), 100 μl of reference plasmid pRL-CMV (1 ng/μl), 100 μl of luciferase reporter plasmid pGL3basic-5xGAL4-TK (10 ng/μl), 100 μl of PPARgamma expression plasmid pcDNA3-GAL4-humanPPARgammaLBD (100 ng/μl) and 78 μl of plasmid pBluescript SK(+) (500 ng/μl). […]

`CCOc1cc(C(F)(F)F)ccc1C(=O)NC1Cc2ccc(S(=O)(=O)Nc3nnc(C(C)C)s3)cc2C1` (single isomer, unassigned; enantiomer 2) [Example 1.2, 2-Ethoxy-N-[5-(5-isopropyl-[1,3,4]thiadiazol-2-ylsulfamoyl)-indan-2-yl]-4-trifluoromethyl-benzamide (Enantiomer 2)]: the EC50 (commonly the concentration at which the effect is half-maximal) was greater than 10000 nM.

`CCOc1cc(C(F)(F)F)ccc1C(=O)N[C@H]1CCc2ccc(S(=O)(=O)Nc3nnc(C(C)C)s3)cc2C1` [Example 5, 2-Ethoxy-N-[(S)-7-(5-isopropyl-[1,3,4]thiadiazol-2-ylsulfamoyl)-1,2,3,4-tetrahydro-naphthalen-2-yl]-4-trifluoromethyl-benzamide] came in with an EC50 of 100 nM.

In turn, `CCOc1cc(C(F)(F)F)ccc1C(=O)NC1Cc2ccc(S(=O)(=O)Nc3nnc(C(C)C)s3)cc2C1` (racemic) [Example 1, 2-Ethoxy-N-[5-(5-isopropyl-[1,3,4]thiadiazol-2-ylsulfamoyl)-indan-2-yl]-4-trifluoromethyl-benzamide] registered a concentration for a half-maximal effect (EC50) of 1 nM.

`CCOc1cc(C(F)(F)F)sc1C(=O)NC1Cc2ccc(S(=O)(=O)Nc3nnc(C(C)C)s3)cc2C1` (stereo not drawn) [Example 11, 3-Ethoxy-5-trifluoromethyl-thiophene-2-carboxylic acid [5-(5-isopropyl-[1,3,4]thiadiazol-2-ylsulfamoyl)-indan-2-yl]-amide] came in with an EC50 greater than 10000 nM.

Consider `CCOc1cc(C(F)(F)F)ccc1C(=O)NC1Cc2ccc(S(=O)(=O)Nc3nnc(C(C)C)s3)cc2C1` (single isomer, unassigned; enantiomer 1) [Example 1.1, 2-Ethoxy-N-[5-(5-isopropyl-[1,3,4]thiadiazol-2-ylsulfamoyl)-indan-2-yl]-4-trifluoromethyl-benzamide (Enantiomer 1)], for which the midpoint of the response, the EC50, lay at 22 nM.

Regarding `CCOc1cc(C(F)(F)F)ccc1C(=O)N[C@@H]1CCc2ccc(S(=O)(=O)Nc3nnc(C(C)C)s3)cc2C1` [Example 6, 2-Ethoxi-N-[(R)-7-(5-isopropyl-[1,3,4]thiadiazol-2-ylsulfamoyl)-1,2,3,4-tetrahydro-naphthalene-2-yl]-4-trifluoromethyl-benzamide], a half-maximal response (EC50) required 200 nM.

Source of the values: patent US7612104B2, “Bicyclic aryl-sulfonic acid [1,3,4]-thiadiazol-2-yl-amides, processes for their preparation, pharmaceutical compositions and methods for their use” (Sanofi-Aventis, priority 2005, dated 2009).
